The record followed here is paper PMC10620030, “New Organotin (IV) Compounds Derived from Dehydroacetic Acid and Thiosemicarbazides: Synthesis, Rational Design, Cytotoxic Evaluation, and Molecular Docking Simulation” (Bioinorganic Chemistry and Applications, 2023).

“Also recorded” adds a separate entry of the source.

One may read the IC50 as the concentration that gives 50% inhibition.

For data set [1], the system named is MCF-7 (human mammary adenocarcinoma) cell line. Description: sulforhodamine B (SRB) cytotoxicity assay on MCF-7. Format: cell-based. Particulars: mean ± SE of three or four assays, incubation 72 h, 48 h exposure. Here is the method: (§1) The compounds were screened in vitro against two cancer cell lines, MCF-7 and MDA-MB-231 (human mammary adenocarcinoma), and the normal cell line Cos-7 (African green monkey kidney fibroblast). The MCF-7 and MDA-MB231 cell lines were cultured in RPMI-1640 medium, and Cos-7 was cultured in DMEM (Dulbecco's Modified Eagle's Medium) and supplemented with 10% of fetal bovine serum, 2 mM L-glutamine, 10000 units/ml penicillin G sodium, 10000 μg/ml streptomycin sulfate, 25 μg amphotericin B (Gibco), and 1% of nonessential amino acids (Gibco). The cell lines were maintained at 37°C in a humidified atmosphere with 5% CO2. The viability of the cells used in the experiments exceeded 95%, as determined with trypan blue.
(§2) The human tumor cytotoxicity was assessed using the protein-binding dye sulforhodamine B (SRB) in a microculture assay to measure the cell growth as described by. The human tumors and normal cells were treated with the complexes. The cells were removed from the tissue culture flask by treatment with trypsin and diluted with fresh media from the cell suspension to 100 μl containing 5000–10000 cells per well. The cells were then pipetted into 96 microliter plates (Costar) and incubated at 37°C for 24 h in a 5% CO2 atmosphere. Subsequently, 100 μl of a solution of the corresponding organotin complex at different concentrations was added to each well. […] After the incubation period, the cells were fixed to the plastic substratum by the addition of 50 μl of cold trichloroacetic acid (50% aqueous).
(§3) The plates were incubated at 4°C for one hour, washed with tap water, and air-dried. The addition of […] stained trichloroacetic acid-fixed cells. The free SRB was removed by washing with 1% aqueous acetic acid, the plates were air-dried, and the dyed was solubilized by adding ten mM unbuffered Tris base (100 μl). The plates were placed on a shaker for 10 min, and the absorption was measured at 515 nm using an ELISA plate reader (Bio-Tex Instruments).
(Sulforhodamine B stains cellular protein and so reports cell mass.)

Data set [2] deals with MDA-MB-231 (human mammary adenocarcinoma) cell line. Description: sulforhodamine B (SRB) cytotoxicity assay on MDA-MB-231. Particulars: mean ± SE of three or four assays, incubation 72 h, 48 h exposure. Format: cell-based. Here is the method:
as §1, §2, §3

Data set [3] relates to COS-7 (African green monkey kidney fibroblast) normal cell line. Kind of data set: sulforhodamine B (SRB) cytotoxicity assay on normal cell line COS-7. The format is cell-based. Here is the method:
as §1
The human tumor cytotoxicity was assessed using the protein-binding dye sulforhodamine B (SRB) in a microculture assay to measure the cell growth as described by. The human tumors and normal cells were treated with the complexes. The cells were removed from the tissue culture flask by treatment with trypsin and diluted with fresh media from the cell suspension to 100 μl containing 5000–10000 cells per well. The cells were then pipetted into 96 microliter plates (Costar) and incubated at 37°C for 24 h in a 5% CO2 atmosphere. Subsequently, 100 μl of a solution of the corresponding organotin complex at different concentrations was added to each well. The cultures were exposed to the compounds for 48 h. After the incubation period, the cells were fixed to the plastic substratum by the addition of 50 μl of cold trichloroacetic acid (50% aqueous).
as §3

The subject of another data set is MCF-7 cell line. Kind of data set: morphological changes, Giemsa stain light microscopy, MCF-7. The format is cell-based, human. Particulars: 48 h treatment. Here is the method:
(§4) To evaluate the morphological alterations induced by organotin(IV) complexes, MCF-7 and MDA-MB231 cell lines were cultured on a tissue culture flask with or without different treatments for 48 h. After incubation, cells were washed two times with PBS, fixed with methanol 100%, and stained with Wright-Giemsa (Sigma-Aldrich, WG32-1L). The culture flasks were examined under an Olympus IX71 Inverted Fluorescence Phase Contrast Microscope. The images were recorded with a Nikon Coolpix 4300 digital camera using the 20x objectives and analyzed by ImageJ software.

A further data set has as its system MDA-MB-231 cell line. Description: morphological changes, Giemsa stain light microscopy, MDA-MB-231. Format: cell-based, human. Particulars: 48 h treatment. How it is done: as §4

In the case of `CC1=NN=C(Nc2ccccc2)[S][Sn]([CH2][Si](C)(C)C)([CH2][Si](C)(C)C)[O]c2cc(C)oc(=O)c21` [Compound 3e, 2,2-Bis(trimethylsilyl)methyl-7,10-dimethyl-4-(aminophenyl) Pyrane[3,4-h]-1,3,5,6,2-oxathiadiazastannonin-8-one], the IC50 in data set [1] is 40 ± 2 nM; in data set [2] it was 140 ± 3 nM; in data set [3] (normal cell line, SRB assay, mean ± SE of three or four assays), 250 ± 10 nM. In data set [3] (nondetectable effect on cell proliferation), the “Non-Cytotoxic concentration on normal cell line COS-7” value is 0.01 µM. Besides, the “morphological alterations MCF-7” value in the data set with MCF-7 cell line was “Cell density decreased; also recorded: presence of nonadherent cells; also recorded: chromatin condensation and pyknotic nuclei”. Besides, the “morphological alterations MDA-MB-231” value in the data set with MDA-MB-231 cell line is “cytoplasm vacuolization”.
